Test [1] deals with Ramos cells. The experiment in a line: In vitro cytotoxicity assay (CCK-8). As to conditions: about 72 hours incubation, parallel detections 1 and 2. Format: cell-based. The text has this: Experiment 2: In vitro Cytotoxicity Assay
FBS, purchased from Lonsera, product number S711-001S;
Streptomycin/Penicillin Dual Antibody, purchased from HyClone, Lot: SV30010;
DPBS (Dulbecco's Phosphate Buffer Solution) was purchased from Gibco, product number 14190-136;
CCK-8 reagent, purchased from Biolite, product number 35004.
Ramos cells were purchased from COBIOER BIOSCIENCES CO., LTD.
Cell culture and plating: Ramos cells with viability greater than 80% in the logarithmic growth phase up to 30 generations were selected for the experiment. Ramos cells were removed from culture flasks and added to 50 mL centrifuge tubes and blown to mix. 1000 rpm (≈188g) centrifugation was performed for 5-6 minutes. The supernatant was discarded and the cells were resuspended with the appropriate volume of diluent. […]
Plate reading: Load the plate into the enzyme labeling instrument and read the plate with 450 nm as the reading wavelength and 650 nm as the reference wavelength.
Data processing: The IC50 value was calculated using a four-parameter fitting model with the concentration value as the horizontal coordinate and the difference between the absorbance value at 450 nm minus the absorbance value at 650 nm as the vertical coordinate.

The test system of test [2] is Ramos cells. In words: Internalization efficacy by flow cytometry, Ramos cells. Format: cell-based. As to conditions: 10 μg/mL, 37° C. 2 h, FIG. 2C. On the procedure:
(§1) Experiment 1: Method for Internalization Efficacy of Antibody-Drug Conjugate (TRS005) by Flow Cytometry
(§2) Cell preparation: take logarithmic growth phase Raji cells or Ramos cells, centrifuge at 1000 rpm for 5 minutes, resuspend using DPBS, adjust the density of live cells to 2×10^6 cells/mL, and divide into 1.5 mL centrifuge tubes, 1 mL/tube.
(§3) Sample dilution: The sample to be tested (TRS005 with a DAR of approximately 4.2) was diluted to 1000 μg/mL, 10 μL was added to each 1 mL of cell suspension, and blown and mixed to make the final concentration of the sample 10 μg/mL.
(§4) Incubation the cell suspension to which the samples were added was placed on ice and ice-bath for 30 minutes. […]
(§5) Cells from the negative control group treated with ice bath were gating and the average fluorescence intensity of cells in each tube at FL1 was recorded. […]
(§6) The percentage of endocytosis of the samples was calculated based on the average fluorescence intensity according to the following formula.
(§7) Internalization efficacy ratio %=(mean fluorescence intensity of negative control group−mean fluorescence intensity of experimental group)/mean fluorescence intensity of negative control group×100%.
(In general: A flow cytometer gives signals particle by particle.)

The test system of a further test is Raji cells. The experiment in a line: Internalization efficacy by flow cytometry, Raji cells. As to conditions: 10 μg/mL, 37° C. 2 h, FIG. 2D. Format: cell-based. On the procedure:
as §1, §2, §3, §4, §5, §6, §7

Test [3] deals with Daudi cell xenografts tumor. In words: In vivo anti-tumor activity test, Daudi graft tumor. The arrangement: species or system BALB/c nude mice. As to conditions: tail vein, 6 injections over 21 days, two batches (first and second), listed as TRS005. The text has this:
Experiment 3 In vivo Anti-Tumor Activity Test
1. Test animals and housing environment
Species: BALB/c nude mice
Gender of animals: male mice.
Age at acquisition: 6-8 weeks; Body weight at the beginning of the experiment: 18˜20 g.
Housing environment: SPF grade.
Daudi cells were purchased from the cell bank of the Type Culture Collection of the Chinese Academy of Sciences.
3. TEST SAMPLE: The Test Sample was Selected From Two Batches of the Product Prepared in Example 2.
Under aseptic conditions of 5% CO2 and 37° C., Daudi cells were cultured with PRMI1640 medium containing 10% fetal bovine serum, respectively, and expanded to 5.0×10^8 cells. Cells were collected by centrifugation and mixed 1:1 with Matrix gel and inoculated subcutaneously into the right side of the rib cage of BALB/c nude mice at 1×10^7 cells/200 μl/animal.
When the mean tumor volume reached 100 mm3, the group was randomized: […]
There were 10 nude mice in each group. Then the administration of the drug was started by tail vein administration, and the body weight of BALB/c nude mice and the long and short diameters of the tumors were measured, and recorded during the administration. […]
Tumor volume and Tumor weight were expressed as Mean±Standard Error of the Mean (Mean±SEM). Statistical tests were analyzed by one-way analysis of variance (ANOVA), with p<0.05 considered significant and p<0.01 considered highly significant.

Where “and” joins values, the source holds several entries; their conditions need not be identical. Equal values may be shown once.

Usually IC50 stands for the midpoint of a concentration-inhibition curve. A low value points to higher potency.

With “Example 2: Anti-CD20 antibody TRS001 (rituximab biosimilar) conjugated to MMAE via maleimidocaproyl-valine-citrulline-p-aminobenzyloxycarbonyl linker; preferred DAR distribution”, the IC50 with Ramos cells [1] is 0.0589 mg/L and 0.0648 mg/L. For the same substance, the internalization efficacy entry with Ramos cells [2] and in the test on Raji cells was “good internalization efficacy” throughout. The tumor inhibition rate is 91.08% and 92.09% in test [3] (0.75 mg/kg); 97.15% and 97.71% in test [3] (1.5 mg/kg).

The values are drawn from patent publication US20250269049A1, “CD20-TARGETED ANTIBODY COUPLING PHARMACEUTICAL PREPARATION” (priority 2017, published 2025).
